Source: patent publication US20250049938A1, “ANTIBODY-DRUG CONJUGATE AND USE THEREOF” (priority 2021, published 2025)
Starred links: 1 amine or outer side, 2 acyl side, 3 side chain; linkers in the order of their positions; H or OH if unused. Non-standard residues stand in square brackets, D forms with d. Residues, ends and D or L forms follow the SMILES beside them. *: point of attachment. Exatecan = CC[C@@]1(O)C(=O)OCc2c1cc1n(c2=O)Cc2c-1nc1cc(F)c(C)c3c1c2[C@@H](N*)CC3; Hexanoyl(6-maleimido) = O=C1C=CC(=O)N1CCCCCC(=O)*; NHCH2OCH2CO = O=C(COCN[*:1])[*:2]

What follows are compounds tested on human colon cancer SW620 cells (assay: In vitro killing of human colon cancer SW620 cells (CellTiter-Glo)). Settings: FIG. 2B; 2-fold dilutions from 400 nM, 9 concentrations; culturing 4 days and 6 days.
Assay type: cell-based
Protocol: Human colon cancer SW620 cells in the logarithmic growth phase were digested with pancreatin, and subsequently resuspended in a corresponding culture medium, with the density adjusted to be 2×10^4 cells/mL. The cells were seeded into a 96-well microplate at 100 μL/well, allowing for a density of 2×10^3 cells/well, and 200 μL of the culture medium was added to each of the rest wells. After culturing for 48 h at 37° C., 5% CO2, the supernatant was pipetted from the cell culture plate. The linker-drugs (04-Dxd, 07-Dxd, 08-Dxd, and 09-Dxd), HER3 ADCs (HER3-ADC04, HER3-ADC07, HER3-ADC08, and HER3-ADC09), and a monoclonal antibody control were diluted in a 2-fold gradient with the culture medium, starting from the initial concentration of 400 nM, to obtain a total of 9 concentration gradients. The diluted samples were added at 100 μL/well. After further culturing for 4 days and 6 days, color development was carried out. The cell plate was taken out and equilibrated for 15-20 min at room temperature, and subsequently 100 μL of CellTiter-Glo® Luminescent Cell Viability assay buffer (purchased from Promega) was added. The plate was shaken for 2 min on a shaker at 200 rpm, kept for 18 min in the dark, and read using an M5 microplate reader.
followed by plotting through four-parameter fitting, with the logarithm of the concentration as the abscissa and the killing rate as the ordinate.

| Structure (SMILES) | in vitro killing effect of linker-Dxd drugs on SW620 cells |
| --- | --- |
| CC[C@@]1(O)C(=O)OCc2c1cc1n(c2=O)Cc2c-1nc1cc(F)c(C)c3c1c2[C@@H](NC(=O)COCNC(=O)CNC(=O)[C@H](Cc1ccccc1)NC(=O)CNC(=O)CNC(=O)CCCCCN1C(=O)C=CC1=O)CC3 [04-Dxd, reference compound] ({Hexanoyl(6-maleimido)}-GGFG[NHCH2OCH2CO]-Exatecan) | killing effect |
| CC[C@@]1(O)C(=O)OCc2c1cc1n(c2=O)Cc2c-1nc1cc(F)c(C)c3c1c2[C@@H](NC(=O)COCNC(=O)CNC(=O)[C@H](Cc1ccccc1)NC(=O)CNC(=O)[C@H](C)NC(=O)[C@@H](NC(=O)CCCCCN1C(=O)C=CC1=O)C(C)C)CC3 [07-Dxd] ({Hexanoyl(6-maleimido)}-VAGFG[NHCH2OCH2CO]-Exatecan) | significantly better killing effect than 04-Dxd |
| CC[C@@]1(O)C(=O)OCc2c1cc1n(c2=O)Cc2c-1nc1cc(F)c(C)c3c1c2[C@@H](NC(=O)COCNC(=O)CNC(=O)[C@H](Cc1ccccc1)NC(=O)CNC(=O)[C@H](CO)NC(=O)[C@H](C)NC(=O)[C@@H](NC(=O)CCCCCN1C(=O)C=CC1=O)C(C)C)CC3 [08-Dxd] ({Hexanoyl(6-maleimido)}-VASGFG[NHCH2OCH2CO]-Exatecan) | significantly better killing effect than 04-Dxd |
| CC[C@@]1(O)C(=O)OCc2c1cc1n(c2=O)Cc2c-1nc1cc(F)c(C)c3c1c2[C@@H](NC(=O)COCNC(=O)CNC(=O)[C@H](Cc1ccccc1)NC(=O)CNC(=O)[C@H](CO)NC(=O)[C@H](CO)NC(=O)[C@H](C)NC(=O)[C@@H](NC(=O)CCCCCN1C(=O)C=CC1=O)C(C)C)CC3 [09-Dxd] ({Hexanoyl(6-maleimido)}-VASSGFG[NHCH2OCH2CO]-Exatecan) | significantly better killing effect than 04-Dxd |
